In data set [1] the test system is breast cancer MDA-MB-231 cells. Put plainly: Annexin V/7AAD apoptosis assay (flow cytometry). Format: cell-based, human. As to conditions: MDA-MB-231, 24 h, 5 and 10 μM versus control and 1 μM. How it is done: To examine the apoptosis-inducing ability of compound 4a, the annexin V/7-aminoactinomycin D (7-AAD) change in breast cancer MDA-MB-231 cells was assessed. […] Compound 4a, consisting of both versatile quinoline and chalcone moieties, was also active in inducing cancer cell apoptosis.
Annexin V/7AAD flow cytometry was a common method for detecting apoptosis. The commercial product containing annexin V-FITC (1:1000) and 7AAD (1 μg/mL) (Strong Biotech; Taipei, Taiwan) was applied to stain drug-treated cells for 1 h. Finally, these stained cells were conducted with flow cytometry (Guava easyCyte, Luminex, TX, USA).
For orientation: In flow cytometry, cells or beads pass a laser one at a time.

The subject of data set [2] is breast cancer MDA-MB-231 cells. Put plainly: ROS assay (H2DCFDA flow cytometry). Format: cell-based, human. The settings on record: MDA-MB-231, 24 h. As to the method:
To evaluate the ROS-inducing ability of compound 4a, the flow cytometry-based ROS detection of breast cancer MDA-MB-231 cells was conducted.
The oxidative stress indicator, such as ROS, was selected to assess the impact of drug treatment on the change in oxidative stress. According to the manufacturer’s instructions, the ROS reacting probe 2′,7′-dichlorodihydrofluorescein diacetate (H2DCFDA) (Sigma-Aldrich) was applied to drug-treated cells. Finally, these stained cells were conducted with flow cytometry.

For the next data set, the system named is MRC-5. Put plainly: XTT antiproliferative assay, normal lung cells MRC-5. Format: cell-based. The settings on record: Homo sapiens, MRC5, 72 h, mean ± SD. How it is done:
(§1) All the synthesized 4-anilinoquinolinylchalcone derivatives were evaluated in vitro against two cancer cells (Huh-7 and MDA-MB-231) and a non-cancer normal fibroblast lung cell line (MRC-5) using an XTT (sodium 3′-[1-(phenylamino-carbonyl)-3,4-tetrazolium}-bis(4-methoxy-6-nitro)benzene sulfonic acid hydrate) assay. The concentration that inhibited the growth of 50% of cells (IC50) was determined from the linear portion of the curve by calculating the concentration of the tested agent that reduced absorbance in treated cells, compared to control cells, by 50%. The IC50 results of these 4-anilinoquinolinylchalcone derivatives are summarized (Table 1). […] Thus, 4a was selected as a lead compound for further mechanism studies.
(§2) Cancer cells (Huh-7, MDA-MB-231) and normal lung cells (MRC-5) were purchased from Bioresources Collection and Research Center, Taiwan. Cells were maintained in the same standard medium, grown as a monolayer in DMEM (Gibco, Miami, FL, USA), and supplemented with 10% fetal bovine serum (FBS) and antibiotics, i.e., 100 IU/mL penicillin, 0.1 mg/mL streptomycin and 0.25 μg/mL amphotericin. The culture was maintained at 37 °C with 5% CO2 in a humidified atmosphere. Cells (5 × 10^3 cells/well) were treated with tested compounds for 72 h in the medium containing 10% FBS. Cell viability was quantitated with the use of sodium 3′-[1-(phenylamino-carbonyl)-3,4-tetrazolium}-bis(4-methoxy-6-nitro)benzene sulfonic acid hydrate (XTT) colorimetric assay (Biological Industries, Beit-Haemek, Israel). XTT labeling reagent (1 mg/mL) was mixed with electron-coupling reagent, following the manufacturer’s instructions, and 50 μL of the mixture was added directly to the cells. The plates were further incubated at 37 °C for 4 h. Color was measured spectrophotometrically in a microtiter plate reader at 492 nm and used as a relative measurement of viable cell numbers. After drug treatment, the viable cell number was compared to the solvent and untreated control cell number. This information was used to determine the percent of control growth as (Abtreated/Abcontrol) × 100, where Ab represents the mean absorbance (n = 3). The concentration that killed 50% of cells (IC50) was determined from the linear portion of the curve by calculating the concentration of the agent that reduced the absorbance in treated cells, compared to control cells, by 50%.
For orientation: Tetrazolium dyes change colour on reduction, which living cells bring about.

For data set [3], the system named is breast cancer MDA-MB-231 cells. Put plainly: Caspase 3/7 luminescence assay. Format: cell-based, human. As to conditions: for caspase 3/7 activation: 24 h. How it is done:
Using the caspase 3/7 luminescence assay, the modulating ability of breast cancer MDA-MB-231 cells on caspase 3/7 signaling with compound 4a was evaluated. […] Moreover, this caspase 3/7 activation with compound 4a was suppressed by NAC pretreatment.
Caspase 3/7 activation is the essential process for apoptosis, which was measured by the caspase-Glo® 3/7 assay (Promega; Madison, WI, USA), and its signal was read and recorded by a Luminometer (Berthold Technologies GmbH & Co., Bad Wildbad, Germany). The role of the induction of ROS affecting caspase 3/7 activity in drug-treated cells was evaluated by the 1 h pretreatment of 10 mM NAC [45, 49, 50].

For data set [4], the system named is Huh-7. Put plainly: XTT antiproliferative assay, Huh-7. Format: cell-based. As to conditions: Homo sapiens, 72 h, mean ± SD. As to the method:
as §1, §2

Data set [5] relates to breast cancer MDA-MB-231 cells. Put plainly: Cellular ATP assay (ATPlite luminescence). Format: cell-based, human. As to conditions: MDA-MB-231, 24 h. How it is done:
ATP levels are another cell viability indicator [31, 32, 33]. To further confirm the inhibition of the cell proliferative ability of compound 4a, the cellular ATP levels of breast cancer MDA-MB-231 cells were assessed (Figure 2).
Cellular ATP was determined using the ATPlite luminescence reagent (PerkinElmer Life Sciences, Boston, MA, USA). According to the user instruction, the cell lysate of treated cells was reacted with ATPlite substrate for 5 min in the dark. Finally, the luminescence was detected by a luminometer (Berthold Technologies GmbH & Co., Bad Wildbad, Germany).

The subject of a further data set is MDA-MB-231. Put plainly: XTT antiproliferative assay, MDA-MB-231. Format: cell-based. As to conditions: Homo sapiens, 72 h, mean ± SD. How it is done: as §1, §2
For data set [6] the following is noted: cited from earlier work.
Another data set has as its system retinoblastoma cells. Also on record: method as in PMID 26564153. The settings on record: cited from earlier work.
Data set [7] has as its system human retinoblastoma Y79 cell. More on the design: method as in PMID 26564153. The settings on record: 48 h XTT assay; read-out: IC50 Y79 cell proliferation; cited from earlier work.
In data set [8] the test system is Huh-7. Also on record: method as in PMID 31234033. The settings on record: Chen et al.; cited from earlier work.
A further data set deals with HepG2. Also on record: method as in PMID 31234033. As to conditions: Chen et al.; cited from earlier work.
In another data set the test system is MDA-MB-231 cell line. More on the design: method as in PMID 31234033. The settings on record: after 24 h of treatment; read-out: IC50 cytotoxicity on MDA-MB-231; cited from earlier work.
The test system of a further data set is HA22T. Also on record: method as in PMID 31234033. The settings on record: Chen et al.; cited from earlier work.
Data set [9] has as its system rheumatoid arthritis fibroblast-like synoviocytes. The settings on record: cited from earlier work.
Data set [10] concerns non-small-cell lung A549 cancer cells. As to conditions: 48 h trypan blue exclusion assay; read-out: IC50 antiproliferation A549; cited from earlier work.

The structures appear in SMILES notation. Counter-ions that a name gives are not always drawn. Like-named read-outs stand apart in the source and are kept apart here.

Usually melting point stands for the temperature of the solid-liquid transition.

Consider `COc1ccc(C(=O)/C=C/c2cc(Nc3ccc(OCc4ccccc4)cc3)c3ccccc3n2)cc1` [Compound 4a, (E)-3-{4-{[4-(Benzyloxy)phenyl]amino}quinolin-2-yl}-1-(4-methoxyphenyl)prop-2-en-1-one], for which the “annexin V/7AAD apoptosis” value in [1] is given as “more significant apoptosis”. Moreover, in [2], the ROS induction result is “dose-responsive induction of ROS”. For the same molecule, the IC50 in the data set on MRC-5 is more than 20 µM; in the data set with Huh-7 [4] it was 1.47 ± 0.07 µM; in the data set with MDA-MB-231 it was 0.11 ± 0.07 µM. Also, the “caspase 3/7 activation” value in data set [3] (MDA-MB-231, 1 μM) was “inactive”; in data set [3] (MDA-MB-231, 5 and 10 μM) it was “significant caspase 3/7 activation”. The “caspase 3/7 activation after NAC pretreatment” value in data set [3] (MDA-MB-231, 1 h pretreatment of 10 mM NAC, then 4a 24 h) is “suppressed”. The “cellular ATP levels” value in [5] is “dose-responsive downregulation of ATP”.

`O=C1c2cc(OCCN3CCCC3)ccc2-c2c(-c3ccc(OCCN4CCCC4)cc3)nc3ccc(OCCN4CCCC4)cc3c21` [BPIQ, 2,9-bis [2-(pyrrolidin-1-yl)ethoxy]-6-{4-[2-(pyrrolidin-1-yl)ethoxy]phenyl}-11H-indeno[1,2-c]quinolin-11-one]: the apoptosis induction result in data set [6] is reported as “apoptosis induction”. In addition, the ROS production result in the data set on retinoblastoma cells was “induces ROS production”. Further, in [7], the IC50 was 13.6 µM.

On to `COc1cccc(COc2ccc(Nc3cc(/C=C/C(=O)c4ccc(F)cc4)nc4ccccc34)cc2)c1` (as salt: salt) [Compound 5f, (E)-1-(4-Fluorophenyl)-3-{4-{{4-[(3-methoxybenzyl)oxy]phenyl}amino}quinolin-2-yl}prop-2-en-1-one], for which the melting point fell in the range of 165 to 166 °C.

With `CS(=O)(=O)CCNCc1ccc(-c2ccc3ncnc(Nc4ccc(OCc5cccc(F)c5)c(Cl)c4)c3c2)o1` [Lapatinib], the IC50 was 2.11 µM in the data set on Huh-7 [8]; more than 20 µM with MRC-5; 3.42 µM in the data set with HepG2; 12.5 ± 0.28 µM in the data set with Huh-7 [4]; 32.5 µM with MDA-MB-231 cell line; 12.8 ± 0.91 µM in the data set with MDA-MB-231. Further, the IC50 in the data set with HA22T was 4.85 µM.

As to `COc1ccc(C(=O)/C=C/c2cc(Nc3ccc(OCc4ccccc4F)cc3)c3ccccc3n2)cc1` (as salt: salt) [Compound 4c], the melting point lay within 175 to 176 °C.

`O=C(/C=C/c1cc(Nc2ccc(OCc3cccc(Cl)c3)cc2)c2ccccc2n1)c1ccc(F)cc1` (as salt: salt) [Compound 5d, (E)-3-{4-{{4-[(3-Chlorobenzyl)oxy]phenyl}amino}quinolin-2-yl}-1-(4-fluorophenyl) prop-2-en-1-one] gave a melting point of 172 to 173 °C.

Take `COc1cc(/C=C/C(=O)c2ccc3ccccc3c2O)cc(OC)c1` [(E)-3-(3,5-dimethoxyphenyl)-1-(1-hydroxynaphthalen-2-yl) prop-2-en-1-one]: in data set [9], the ROS burst result is given as “evoke ROS burst”.

Take `COc1ccc(C(=O)/C=C/c2cc(Nc3ccc(OCc4cccc(Cl)c4)cc3)c3ccccc3n2)cc1` (as salt: salt) [Compound 4d, (E)-3-{4-{{4-[(3-Chlorobenzyl)oxy]phenyl}amino}quinolin-2-yl}-1-(4-methoxy-phenyl) prop-2-en-1-one]: the melting point lay within 132 to 133 °C.

With `COc1ccc(C(=O)/C=C/c2cc(Nc3ccc(OCc4cccc(F)c4)cc3)c3ccccc3n2)cc1` (as salt: salt) [Compound 4e, (E)-3-{4-{{4-[(3-Fluorobenzyl)oxy]phenyl}amino}quinolin-2-yl}-1-(4-methoxy-phenyl) prop-2-en-1-one], the melting point was in the range of 171 to 172 °C.

For the molecule `O=C(/C=C/c1cc(Nc2ccc(OCc3ccc(F)cc3)cc2)c2ccccc2n1)c1ccc(F)cc1` (as salt: salt) [Compound 5h, (E)-3-{4-{{4-[(4-Fluorobenzyl)oxy]phenyl}amino}quinolin-2-yl}-1-(4-fluorophenyl)prop-2-en-1-one], the melting point was in the range of 254 to 255 °C.

Consider `O=C(/C=C/c1cc(Nc2ccc(OCc3ccc(Cl)cc3)cc2)c2ccccc2n1)c1ccc(F)cc1` (as salt: salt) [Compound 5g, (E)-3-{4-{{4-[(4-Chlorobenzyl)oxy]phenyl}amino}quinolin-2-yl}-1-(4-fluorophenyl)prop-2-en-1-one], for which the melting point was 179 to 180 °C.

For the molecule `CN(C)CCCOc1ccc(-c2nc3ccc(F)cc3c3c2-c2ccc(OCCCN(C)C)cc2C3=O)cc1` [DFIQ], in [10], the IC50 was 3.53 µM.

The molecule `COc1ccc(C(=O)/C=C/c2cc(Nc3ccc(OCc4ccc(F)cc4)cc3)c3ccccc3n2)cc1` (as salt: salt) [Compound 4h, (E)-3-{4-{ {4-[ (4-Fluorobenzyl)oxy]phenyl}amino}quinolin-2-yl}-1-(4-methoxy - phenyl)prop-2-en-1-one] displayed a melting point of 176 to 177 °C.

The molecule `COc1ccc(C(=O)/C=C/c2cc(Nc3ccc(OCc4ccc(Cl)cc4)cc3)c3ccccc3n2)cc1` (as salt: salt) [Compound 4g, (E )-3-{4-{{4-[(4-Chlorobenzyl)oxy]phenyl}amino}quinolin-2-yl}-1-(4-methoxy - phenyl)prop-2-en-1-one] came in with a melting point of 142 to 143 °C.

Regarding `O=C(/C=C/c1cc(Nc2ccc(OCc3cccc(F)c3)cc2)c2ccccc2n1)c1ccc(F)cc1` (as salt: salt) [Compound 5e, (E)-3-{4-{{4-[(3-Fluorobenzyl)oxy]phenyl}amino}quinolin-2-yl}-1-(4-fluorophenyl)prop-2-en-1-one], the melting point fell in the range of 213 to 214 °C.
